Columns and labels:
CDK9/CycT1 [1] = target: T1, CDK9/CycT1 (Homo sapiens (Human), UniProt P50750); test: CDK9 kinase assay, high ATP concentration (5 mM ATP); assay type: biochemical; conditions: 1.5 nM CDK9, read-out: CDK9 High ATP conc. (IC50)
Protocol: (§1) Activity of CDK9 was determined in-vitro using a mobility shift assay on a Caliper LC3000 reader (Caliper/PerkinElmer), which measures fluorescence of a phosphorylated and unphosphorylated fluorescent peptide substrate and calculates a ratiometric value to determine percent turnover. Phosphorylation of the peptide in the presence and absence of the compound of interest was determined. Enzyme/substrate/adenosine triphosphate (ATP) mix (3 nM CDK9/CycT1, 6 μM ATP, 1.5 μM CDK9 peptide substrate (FITC-X-GSRTPMY-NH2 (X: epsilon aminocaproic acid)), 50 mM HEPES (pH7.2), 1 mM dithiothreitol, 0.01% tween 20, 50 μg/mL bovine serum albumin, (final assay concentration)) (5 μl) was preincubated with 2 μl of compound for 15 minutes at 25° C. Reactions were initiated with 5 μl of 24 mM MgCl2 (10 mM final assay concentration) in buffer (50 mM HEPES (pH7.2), 1 mM dithiothreitol, 0.01% tween 20, 50 μg/mL bovine serum albumin, (final assay concentration) and incubated at 25° C. for 90 minutes and reactions were stopped by addition of 5 μl of Stop mix consisting of 65 mM HEPES (pH7.2), 35.5 mM EDTA, 0.227% Coatin Reagent 3 (Caliper/PerkinElmer), and 0.003% Tween. Phosphorylated and unphosphorylated substrate was detected by a Caliper LC3000 reader (Caliper/PerkinElmer) in the presence of separation buffer consisting of 100 mM HEPES (pH7.2), 15.8 mM EDTA, 0.1% Coatin Reagent 3 (Caliper/PerkinElmer), 0.015% Brij-35, 5% DMSO, and 5.6 mM MgCl2. CDK9 enzyme was acquired from Carna Biosciences (Catalogue number 04-110), the CDK9 peptide substrate was acquired from Intonation (Boston, Mass.; Custom-made).
High ATP assays were run the same way with the following modifications: the final assay concentration of CDK9 was 1.5 nM and the final assay concentration of ATP was 5 mM.

[2] = system: phosphorylation of RNA Polymerase II (RNAPII) at the Ser2 site in MCF7 cells; test: MCF7 pSer2 RNAPII MOA assay (immunofluorescence); assay type: cell-based; conditions: Homo sapiens, MCF7, 6 h, 6-hr treatment, read-out: p-Ser 2 RNAPII (IC50)
Protocol: MCF7 pSer2 RNAPII MOA Assay
This is an immunofluorescence assay to determine the effect of CDK9 inhibitors on phosphorylation of RNA Polymerase II (RNAPII) at the Ser2 site in the breast cancer cell line, MCF7. On day one, 2500 MCF7 cells/well were seeded in 30 μl of growth media (RPMI+10% FBS+1% L-Glu+P/S) in 384-well black-wall clear-bottom plates, incubate plates overnight at 37° C. incubator. On the second day, the cells were treated with CDK9 inhibitors (7 point dose response ranging from 3 μM to 0.004 μM) using an ECHO liquid handler (Labcyte). After 6-hr treatment at 37° C. incubator, the cells were fixed with 30 µl/well 7.4% paraformaldehyde for 15 min at room temperature; the cells were washed twice with PBS, then permeabilized with 0.3% Triton X/PBS for 5 min at room temperature. After washing cells with PBS, the cells were incubated with 1:2000 diluted Anti-Ser2 Phospho-RNA pol II antibody (Covance MMS-129R) in 3% FBS/0.1% PBST overnight at 4° C. On the next day, the cells were washed twice with 0.1% PBST, then incubated with 1:1000 diluted Alexa Fluor 488 Goat-anti-mouse antibody (Life Technologies A-11001) and 1:4000 diluted DAPI at room temperature in dark. After one hour incubation, the cells were washed twice with 0.1% PBST, and once with PBS. The plates where sealed and read on an Acumen eX3 microplate cytometer (TTP Labtech) to assess phosphorylation level in each well.

MV411 cells = test: MV411 caspase activity assay (Caspase-Glo 3/7); assay type: cell-based; conditions: Homo sapiens, MV4-11, 6 h, 6-hr treatment, caspase 3/7 induction
Protocol: MV411 Caspase Activity Assay
This is a cell assay to measure the induction of caspase activity in the acute myeloid leukemia cell line, MV411 after 6-hr treatment with CDK9 inhibitors. On the first day, 3000 MV411 cells/well were seeded in 50 μl of growth media (IMDM+10% FBS+2% L-Glu+P/S) in 384-well white plates, incubate plates in 37° C. incubator overnight. […] After 6 hour incubation in 37° C. incubator, 25 μl of Caspase-Glo 3/7 reagent (Promega) per well was added into each well, and plates were incubated at room temperature for 30 min in dark. The plates were read on an Infinite M200 microplate reader (Tecan) with a 100 ms integration time.

CDK9/CycT1 [3] = target: T1, CDK9/CycT1; test: CDK9 kinase assay, ATP concentration at Km (mobility shift, Caliper LC3000); assay type: biochemical; conditions: 6 μM ATP, 3 nM CDK9/CycT1; read-out: CDK9 ATP conc. at Km (IC50)
Protocol: as §1

T1 sequence (P50750 whole entry): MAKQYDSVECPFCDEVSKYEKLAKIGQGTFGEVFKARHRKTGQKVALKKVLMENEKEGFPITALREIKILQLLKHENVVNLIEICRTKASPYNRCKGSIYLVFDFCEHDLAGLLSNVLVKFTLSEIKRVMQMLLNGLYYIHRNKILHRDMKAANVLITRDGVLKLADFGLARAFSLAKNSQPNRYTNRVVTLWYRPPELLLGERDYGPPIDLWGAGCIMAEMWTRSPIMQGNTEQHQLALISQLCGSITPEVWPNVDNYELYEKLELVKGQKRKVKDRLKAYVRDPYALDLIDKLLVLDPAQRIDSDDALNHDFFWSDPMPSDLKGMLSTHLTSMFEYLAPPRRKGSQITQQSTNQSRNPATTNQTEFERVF
T1 sequence (O60563 whole entry partner): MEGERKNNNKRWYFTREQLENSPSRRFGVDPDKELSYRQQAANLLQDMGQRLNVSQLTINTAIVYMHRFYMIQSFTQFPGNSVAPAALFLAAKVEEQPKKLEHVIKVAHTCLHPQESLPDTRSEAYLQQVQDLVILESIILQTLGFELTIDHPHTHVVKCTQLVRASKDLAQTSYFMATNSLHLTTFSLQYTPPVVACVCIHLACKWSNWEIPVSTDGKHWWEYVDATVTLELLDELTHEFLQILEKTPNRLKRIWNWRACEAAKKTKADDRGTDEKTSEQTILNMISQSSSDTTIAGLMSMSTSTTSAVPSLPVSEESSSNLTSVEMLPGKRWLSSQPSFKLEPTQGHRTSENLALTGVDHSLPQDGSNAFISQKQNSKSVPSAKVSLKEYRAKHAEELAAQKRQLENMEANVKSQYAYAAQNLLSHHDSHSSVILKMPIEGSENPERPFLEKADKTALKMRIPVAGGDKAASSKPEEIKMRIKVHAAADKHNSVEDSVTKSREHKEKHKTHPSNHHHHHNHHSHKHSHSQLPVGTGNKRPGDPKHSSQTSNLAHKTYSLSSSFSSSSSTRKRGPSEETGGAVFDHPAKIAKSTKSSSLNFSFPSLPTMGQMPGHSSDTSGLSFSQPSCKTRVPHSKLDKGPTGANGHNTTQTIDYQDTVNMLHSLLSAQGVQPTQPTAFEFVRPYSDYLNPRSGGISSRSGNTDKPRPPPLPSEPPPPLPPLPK

Compound	IC50 (CDK9/CycT1 [1])	IC50 [2]	IC50 (MV411 cells)	IC50 (CDK9/CycT1 [3])
Cc1cnc(NC(=O)[C@H]2CCC[C@@H](NC(=O)CO)C2)cc1-c1cnn2c1CC(C)(C)C2 [Example 75, (1S,3R)—N-(4-(5,5-dimethyl-5,6-dihydro-4H-pyrrolo[1,2-b]pyrazol-3-yl)-5-methylpyridin-2-yl)-3-(2-hydroxyacetamido)cyclohexanecarboxamide]	29 nM	67 nM	111 nM	< 3 nM
CC(=O)N[C@@H]1CCC[C@H](C(=O)Nc2cc(-c3cnn4c3CC(C)(C)C4)ccn2)C1 [Example 16, (1S,3R)-3-acetamido-N-(4-(5,5-dimethyl-5,6-dihydro-4H-pyrrolo[1,2-b]pyrazol-3-yl)pyridin-2-yl)cyclohexanecarboxamide]	28 nM	150 nM	100 nM	< 3 nM
CC1(C)Cc2ncc(-c3cc(NC(=O)[C@H]4C[C@@H](O)C4)ncc3Cl)n2C1 [Example 58, cis-N-(5-chloro-4-(6,6-dimethyl-6,7-dihydro-5H-pyrrolo[1,2-a]imidazol-3-yl)pyridin-2-yl)-3-hydroxycyclobutanecarboxamide]	41 nM	17 nM	76 nM	< 3 nM
CC(=O)N[C@@H]1CCC[C@H](C(=O)Nc2cc(-c3cn[nH]c3CCCCO)c(Cl)cn2)C1 [Example 78a, (1S,3R)-3-acetamido-N-(5-chloro-4-(5-(4-hydroxybutyl)-1H-pyrazol-4-yl)pyridin-2-yl)cyclohexanecarboxamide]	85 nM	> 2630 nM	7130 nM	< 3 nM
CC(=O)N[C@@H]1CCC[C@H](C(=O)Nc2cc(-c3cnn4c3CC(C)(C)C4)c(C#N)cn2)C1 [Example 39, (1S,3R)-3-acetamido-N-(5-cyano-4-(5,5-dimethyl-5,6-dihydro-4H-pyrrolo[1,2-b]pyrazol-3-yl)pyridin-2-yl)cyclohexanecarboxamide]	62 nM	147 nM	145 nM	< 3 nM
CC1(C)Cc2c(-c3ccnc(NC(=O)[C@H]4CCC[C@@H](NC(=O)C5(O)CC5)C4)c3)cnn2C1 [Example 17, (1S,3R)—N-(4-(5,5-dimethyl-5,6-dihydro-4H-pyrrolo[1,2-b]pyrazol-3-yl)pyridin-2-yl)-3-(1-hydroxycyclopropanecarboxamido)cyclohexanecarboxamide]	36 nM	207 nM	140 nM	4 nM
CC(=O)N[C@@H]1CCC[C@H](C(=O)Nc2cc(-c3cnn4c3CCCC4)ncn2)C1 [Example 28, (1S,3R)-3-acetamido-N-(6-(4,5,6,7-tetrahydropyrazolo[1,5-a]pyridin-3-yl)pyrimidin-4-yl)cyclohexanecarboxamide]	4710 nM	> 3000 nM	6600 nM	36 nM
CC1(C)Cc2c(-c3cc(NC(=O)[C@H]4CCC[C@@H](N)C4)ncc3F)cnn2C1 [Example 54, (1S,3R)-3-amino-N-(4-(5,5-dimethyl-5,6-dihydro-4H-pyrrolo[1,2-b]pyrazol-3-yl)-5-fluoropyridin-2-yl)cyclohexane-1-carboxamide]	777 nM	455 nM	431 nM	10 nM
CC(=O)N[C@@H]1CCC[C@H](C(=O)Nc2cc(-c3cnn4c3CCCC4)c(C)cn2)C1 [Example 77, (1S,3R)-3-acetamido-N-(5-methyl-4-(4,5,6,7-tetrahydropyrazolo[1,5-a]pyridin-3-yl)pyridin-2-yl)cyclohexanecarboxamide]	213 nM	338 nM	543 nM	4 nM
C[C@H](O)C(=O)N[C@@H]1CCC[C@H](C(=O)Nc2cc(-c3cnn4c3CCCC4)c(Cl)cn2)C1 [Example 37, (1S,3R)—N-(5-chloro-4-(4,5,6,7-tetrahydropyrazolo[1,5-a]pyridin-3-yl)pyridin-2-yl)-3-((S)-2-hydroxypropanamido)cyclohexanecarboxamide]	38 nM	149 nM	177 nM	< 3 nM

The next molecules have a lower IC50 (CDK9/CycT1 [1]) than those just listed; values first:

IC50 (CDK9/CycT1 [1])	IC50 [2]	IC50 (MV411 cells)	IC50 (CDK9/CycT1 [3])	Compound
< 3 nM	7 nM	10 nM	< 3 nM	CC1(C)Cc2c(-c3cc(NC(=O)[C@H]4CCC[C@@H](NC(=O)C5(O)CC5)C4)ncc3F)cnn2C1 [Example 55, (1S,3R)—N-(4-(5,5-dimethyl-5,6-dihydro-4H-pyrrolo[1,2-b]pyrazol-3-yl)-5-fluoropyridin-2-yl)-3-(1-hydroxycyclopropanecarboxamido)cyclohexanecarboxamide]
3 nM	40 nM	15 nM	< 3 nM	CC(=O)N[C@@H]1CC[C@H](C(=O)Nc2cc(-c3cnn4c3CC(C)(C)C4)c(Cl)cn2)C1 [Example 48, (1S,3R)-3-acetamido-N-(5-chloro-4-(5,5-dimethyl-5,6-dihydro-4H-pyrrolo[1,2-b]pyrazol-3-yl)pyridin-2-yl)cyclopentanecarboxamide]
25 nM	61 nM	73 nM	< 3 nM	CC(=O)N[C@@H]1CCC[C@@H](C(=O)Nc2cc(-c3cnn4c3CC(C)(C)C4)c(F)cn2)C1 (single isomer, unassigned) [Example 83]
< 3 nM	< 7 nM	13 nM	< 3 nM	CC1(C)Cc2c(-c3cc(NC(=O)[C@H]4CCC[C@@H](NC(=O)C5(O)CC5)C4)ncc3Cl)cnn2C1 [Example 21, (1S,3R)—N-(5-chloro-4-(5,5-dimethyl-5,6-dihydro-4H-pyrrolo[1,2-b]pyrazol-3-yl)pyridin-2-yl)-3-(1-hydroxycyclopropanecarboxamido)cyclohexanecarboxamide]
< 4 nM	12 nM	8 nM	< 3 nM	CC1(C)Cc2c(-c3cc(NC(=O)[C@H]4CCC[C@@H](NC(=O)[C@@H]5CCCO5)C4)ncc3Cl)cnn2C1 [Example 45, (S)—N-((1R,3S)-3-((5-chloro-4-(5,5-dimethyl-5,6-dihydro-4H-pyrrolo[1,2-b]pyrazol-3-yl)pyridin-2-yl)carbamoyl)cyclohexyl)tetrahydrofuran-2-carboxamide]
4 nM	28 nM	53 nM	< 3 nM	CC1(C)Cc2ncc(-c3cc(NC(=O)[C@H]4CCC[C@@H](NC(=O)C5COC5)C4)ncc3Cl)n2C1 [Example 57, N-((1R,3S)-3-((5-chloro-4-(6,6-dimethyl-6,7-dihydro-5H-pyrrolo[1,2-a]imidazol-3-yl)pyridin-2-yl)carbamoyl)cyclohexyl)oxetane-3-carboxamide]
< 3 nM	13 nM	11 nM	< 3 nM	CC1(C)Cc2c(-c3cc(NC(=O)[C@H]4CCC[C@@H](NC(=O)C5COC5)C4)ncc3Cl)cnn2C1 [Example 19, N-((1R,3S)-3-((5-chloro-4-(5,5-dimethyl-5,6-dihydro-4H-pyrrolo[1,2-b]pyrazol-3-yl)pyridin-2-yl)carbamoyl)cyclohexyl)oxetane-3-carboxamide]

Reference: patent US10717746B2, “Chemical compounds” (ASTRAZENECA AB, priority 2015, dated 2020)
